Reference: patent US20080226596A1, “Therapeutic compositions and methods useful in treating hepatitis” (priority 2006, published 2008)
Entries after “also recorded” stand apart in the source; their conditions may differ.

How the values were obtained:
[1] = molecular target: T1, SHP-1 (Mus musculus, UniProt P29351); experiment: Reversibility of SHP-1 inhibition (washing of bead-bound GST/SHP-1); assay type: biochemical; conditions: pre-incubated 4° C. 30 minutes, washed 3 times
T1 construct: made in house
From the text: The beads were then either subjected to in vitro PTPase assays or washed 3 times in Tris buffer then subjected to in vitro PTPase assays.

[2] = system: DS cells; experiment: DS lymphoma cell growth, MTT assay; assay type: cell-based, human; conditions: day 3; IFN-alpha 1,000 u/ml
Procedure: (§1) For cell proliferation assays, cells were grown in 10% FCS culture medium containing various amounts of IFNs and/or sodium stibogluconate in 96 well plates and cultured at 37° C. for 3 or 6 days as indicated. The numbers of viable cells in proliferation assays were determined by MTT assays as described in Phatak et al., J. Immunol. 167, 3391 (2001).

[3] = system: WiT49-N1 cells; experiment: WiT49-N1 Wilms tumor cell growth, MTT assay; assay type: cell-based, human; conditions: single agent, day 6; killing at 100 μg/ml
Procedure: as §1

[4] = system: Renca cells; experiment: Renca cell growth in culture, MTT assay; assay type: cell-based, murine; conditions: SSG 6.25-200 μg/ml, 6 days; listed as SSG
From the text: Renca (Murphy, G. P., and W. J. Hrushesky. 1973. A murine renal cell carcinoma. J Natl Cancer Inst 50:1013), Jurkat (Gillis, S., and J. Watson. 1980. Biochemical and biological characterization of lymphocyte regulatory molecules. V. Identification of an interleukin 2-producing human leukemia T cell line. J Exp Med 152:1709) and WM9 (Forsberg, K., I. Valyi-Nagy, C. H. Heldin, M. Herlyn, and B. Westermark. 1993. Platelet-derived growth factor (PDGF) in oncogenesis: development of a vascular connective tissue stroma in xenotransplanted human melanoma producing PDGF-BB. Proc Natl Acad Sci USA 90:393) cell lines were obtained from a colleague at the Cleveland Clinic Foundation (CCF) and cultured in RPMI 1640 medium supplemented with 10% fetal calf serum (FCS). […] SSG has been described previously (Yi, T., M. K. Pathak, D. J. Lindner, M. E. Ketterer, C. Farver, and E. C. Borden. 2002. Anticancer activity of sodium stibogluconate in synergy with IFNs. J Immunol 169:5978). For cell growth inhibition assays, cells were cultured in absence or presence of various amounts of SSG for 6 days with viable cells quantified by MTT assays as described elsewhere (Pathak, M. K., and T. Yi. 2001. Sodium stibogluconate is a potent inhibitor of protein tyrosine phosphatases and augments cytokine responses in hemopoietic cell lines. J Immunol 167:3391).

[5] = molecular target: T2, intracellular Flag-PRL-2 (Homo sapiens, UniProt Q12974); experiment: Immunocomplex PTPase assay, Flag-PRL-2 NIH3T3 transfectants; assay type: cell-based, mouse
T2 construct: expressed in transfected cells; host or cells: NIH3T3 transfectants, pBabepuro vector
Procedure: (§2) Immunocomplex PTPase assays were performed to assess the effects of sodium stibogluconate on intracellular PTPases. Cells were untreated or treated with sodium stibogluconate for 5 minutes, washed with fresh medium and then lysed in cold lysis buffer (50 mM Tris, pH 7.4; 150 mM NaCl; 1% NP40; 2 mM PMSF; 20, g/ml of Aprotinin). The lysates were incubated with an anti-Flag antibody in immunoprecipitation assays. The immunocomplexes were collected with protein G sepharose beads (Pharmacia) and washed in cold lysis buffer for 4 times. […] 100 µL of malachite green solution (UBI) was added to each reaction prior to measurement of OD660 to quantify the amounts of free phosphate cleaved by the PTPases from the peptide substrate (Pathak et al., J. Imumol. 167, 3391 (2001)). The remaining 10% contents of individual samples were analyzed by SDS-PAGE/Western blotting to quantify the relative amounts of the phosphatase proteins. […]
(§3) The effects of sodium stibogluconate on intracellular PTPases were assessed using NIH3T3 or WM9 transfectants. […]

[6] = molecular target: T3, intracellular Flag-PRL-3 (Homo sapiens, UniProt O75365); experiment: Immunocomplex PTPase assay, Flag-PRL-3 NIH3T3 transfectants; assay type: cell-based, mouse; conditions: 5 min treatment
T3 construct: expressed in transfected cells; host or cells: NIH3T3 transfectants, pBabepuro vector
Procedure: as §2, §3

[7] = system: A549 cells; experiment: A549 lung cancer cell growth, MTT assay; assay type: cell-based, human; conditions: 100 μg/ml, day 6
Procedure: (§4) NIH3T3 (Yi, et al., Blood 85, 87 (1995)), WM9 (Forsberg, et al., Proc. Nat. Acad Sci. USA 90, 393 (1993)), DU145 (Mickey, et al., Cancer Res. 37, 4049 (1977)), LoVo (Drewinko, et al., Cancer Res. 36, 467 (1976)), HEY (Buick, et al., Cancer Res. 45, 3668 (1985)), U251 (Yoshida, et al., Cancer 50, 410 (1982)), A549 (Giard, et al., J. Natl. Cancer Inst. 51, 1417 (1973)) and SK-N-SH (Helson, et al., Cancer Res. 35, 2594 (1975)) cell lines have been described and were cultured in RPMI 1640 supplemented with 10% fetal calf serum (FCS). For measurement of sodium stibogluconate effects on cell growth in vitro, cells were cultured in the absence (−) or presence (+) of various amounts of sodium stibogluconate for 6 days with viable cells quantified by MTT assays (Mosmann, J. Immunol. Methods 65, 55 (1983)). Percentages of growth inhibition by sodium stibogluconate were calculated (.+−.x

[8] = system: U251 cells; experiment: U251 glioma cell growth, MTT assay; assay type: cell-based, human; conditions: 100 μg/ml, day 6
Procedure: as §4

T2 sequence (Q12974 whole entry): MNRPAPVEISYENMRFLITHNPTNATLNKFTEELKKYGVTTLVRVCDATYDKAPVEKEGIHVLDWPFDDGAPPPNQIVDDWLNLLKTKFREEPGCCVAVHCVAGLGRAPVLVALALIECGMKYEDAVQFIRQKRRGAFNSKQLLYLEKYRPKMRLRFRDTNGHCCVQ
T1 sequence (P29351 whole entry): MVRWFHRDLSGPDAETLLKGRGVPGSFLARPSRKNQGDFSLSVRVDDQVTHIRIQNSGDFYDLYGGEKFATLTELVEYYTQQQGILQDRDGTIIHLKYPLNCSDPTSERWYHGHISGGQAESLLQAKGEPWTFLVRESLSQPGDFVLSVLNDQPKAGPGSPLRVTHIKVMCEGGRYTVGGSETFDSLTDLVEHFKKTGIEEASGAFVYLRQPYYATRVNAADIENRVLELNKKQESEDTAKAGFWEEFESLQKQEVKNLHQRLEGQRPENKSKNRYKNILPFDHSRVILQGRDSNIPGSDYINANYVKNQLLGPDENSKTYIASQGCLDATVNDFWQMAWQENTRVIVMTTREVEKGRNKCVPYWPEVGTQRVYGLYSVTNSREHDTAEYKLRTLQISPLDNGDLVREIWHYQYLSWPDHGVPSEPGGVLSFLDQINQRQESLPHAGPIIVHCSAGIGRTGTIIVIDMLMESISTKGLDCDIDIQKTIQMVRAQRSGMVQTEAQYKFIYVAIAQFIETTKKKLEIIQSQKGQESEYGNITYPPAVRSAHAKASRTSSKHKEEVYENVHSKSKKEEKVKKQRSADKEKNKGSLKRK
T3 sequence (O75365 whole entry): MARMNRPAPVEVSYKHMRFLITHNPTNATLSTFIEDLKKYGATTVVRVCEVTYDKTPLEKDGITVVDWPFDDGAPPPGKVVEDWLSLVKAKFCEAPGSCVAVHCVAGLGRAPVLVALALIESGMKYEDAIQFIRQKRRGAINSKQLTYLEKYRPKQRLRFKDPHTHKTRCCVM

## O.O.O.O.O.O.O.O.O.O=C([O-])[C@@H]1[O][Sb]2([O-])([O][Sb]34([OH])[O][C@H]([C@H](O)CO)[C@H]([O]3)[C@H](C(=O)[O-])[O]4)[O][C@H]([C@H](O)CO)[C@@H]1[O]2.[Na+].[Na+].[Na+] [sodium stibogluconate]
[1]
  inhibition of GST/SHP-1 after washing: not affected by washing
[2]
  activity against DS cells: modest activity
[3]
  sensitivity/killing of WiT49-N1 cells: sensitive; also recorded: complete or near complete killing
[4]
  Renca cell growth in culture: failed to inhibit Renca cell proliferation in culture
[5]; 5 min treatment
  PTPase activity of Flag-PRL-2 immunocomplexes from treated cells: lack of PTPase activity; also recorded: markedly reduced PTPase activity
[5]; brief treatment
  time for full removal of effect on intracellular PRL-2 activity: at least 24 hours
[6]
  PTPase activity of Flag-PRL-3 immunocomplexes from treated cells: lack of PTPase activity
[7]
  killing of A549 cells: near-complete cell killing
[8]
  killing of U251 cells: near-complete cell killing
